Test results: US20230233736A1, “ANTIMICROBIAL FORMULATIONS COMPRISING SILICONE” (AMICOAT AS, priority 2020, published 2023)
≈ marks a conversion by molar mass, not a printed value. Where a SMILES comes first, the peptide text is derived from it. The star is where a group is joined. NHPhenethyl = c1ccc(CCN*)cc1

Experiments:
[1] = system: Bacteroides fragilis; test: MIC microbroth dilution (CLSI); assay type: cell-based; set-up: unit not given beside the values; conditions: ATCC 25285; SBB
[2] = system: Staphylococcus aureus, strain ATCC 25923; conditions: for MIC: S. aureus ATCC 25923; for S. aureus: Table 5, strain ATCC 25923
[3] = system: Microsporum canis; test: MIC microbroth dilution (CLSI); assay type: cell-based; conditions: G.R. Micro collection
[4] = system: Trichophyton mentagrophytes; test: MIC microbroth dilution (CLSI); assay type: cell-based; conditions: G.R. Micro collection
[5] = system: Eggerthella lenta; test: MIC microbroth dilution (CLSI); assay type: cell-based; set-up: unit not given beside the values; conditions: ATCC 43055; SBB
[6] = system: Methicillin resistant Staphylococcus epidermidis (MRSE) strain ATCC 27626; conditions: for MIC: MRSE ATCC 27626; for MRSE: Table 5, strain ATCC 27626
[7] = system: Cryptococcus neoformans; test: MIC microbroth dilution (CLSI); assay type: cell-based; conditions: G.R. Micro collection
[8] = system: Clostridium difficile; test: MIC microbroth dilution (CLSI); assay type: cell-based; set-up: unit not given beside the values; conditions: antibiotic-susceptible clinical isolate
[9] = system: Candida tropicalis; test: MIC microbroth dilution (CLSI); assay type: cell-based; conditions: ATCC750 - reference strain
[10] = system: Aspergillus niger; test: MIC microbroth dilution (CLSI); assay type: cell-based; conditions: G.R. Micro collection
[11] = system: Streptococcus pyogenes; assay type: cell-based; conditions: Macrolide (M-type) resistance clinical isolate
From the text: (§1) Cation-adjusted Mueller-Hinton broth (Oxoid Ltd., Basingstoke, UK and Trek Diagnostic Systems Ltd., East Grinstead, UK) (supplemented with 5% laked horse blood for Streptococcus spp., Corynebacterium jeikeium and Listeria monocytogenes) was used for aerobic bacteria, with an initial inoculum of approximately 10^5 colony-forming units (CFU)/m L.

[12] = system: Shigella sp; test: MIC microbroth dilution (CLSI); assay type: cell-based; conditions: antibiotic-susceptible clinical isolate
From the text: as §1

[13] = system: Stenotrophomonas maltophilia; test: MIC microbroth dilution (CLSI); assay type: cell-based; conditions: antibiotic-susceptible clinical isolate
From the text: as §1

[14] = system: Enterococcus gallinarum; test: MIC microbroth dilution (CLSI); assay type: cell-based; conditions: vancomycin-resistant (VanC) clinical isolate
From the text: as §1

[15] = system: Salmonella sp; test: MIC microbroth dilution (CLSI); assay type: cell-based
From the text: as §1

[16] = system: Staphylococcus saprophyticus; test: MIC microbroth dilution (CLSI); assay type: cell-based; conditions: antibiotic susceptible clinical isolate
From the text: as §1

[17] = system: Listeria monocytogenes; test: MIC microbroth dilution (CLSI); assay type: cell-based; conditions: antibiotic-susceptible clinical isolate
From the text: as §1

[18] = system: Trichophyton interdigitale; test: MIC microbroth dilution (CLSI); assay type: cell-based; conditions: G.R. Micro collection
[19] = system: Acinetobacter baumanii; test: MIC microbroth dilution (CLSI); assay type: cell-based; set-up: unit not given beside the values; conditions: antibiotic-susceptible clinical isolate
From the text: as §1

[20] = system: Methicillin resistant Staphylococcus aureus (MRSA) strain ATCC 33591; conditions: for MIC: MRSA ATCC 33591; for MRSA: Table 5, strain ATCC 33591
[21] = system: trypsin; test: in vitro; assay type: in vitro ADME; conditions: pH 8.6
Procedure: Each peptide was dissolved in a 0.1 M NH4HCO3 buffer (pH 6.5) to yield a final peptide concentration of 1 mg/ml. A trypsin solution was prepared by dissolving 1 mg of trypsin in 50 ml 0.1 M NH4HCO3 buffer (pH 8.2). For the stability determination, 250 μl freshly made trypsin solution and 250 μl peptide solution were incubated in 2 ml of 0.1 M NH4HCO3 buffer (pH 8.6) at 37° C. on a rocking table. Aliquots of 0.5 ml were sampled at different time intervals, diluted with 0.5 ml water:acetonitrile (60:40 v/v) containing 1% TFA and analysed by RP-HPLC as described above. Samples without trypsin addition taken at 0 h and after 20 h at 37° C. were used as negative controls. Integration of the peak area at 254 nm for samples taken during the first 5 hours of the assay was used to generate the […].

[22] = system: C. albicans; test: Antimicrobial assay, Table 5; assay type: cell-based
[23] = system: S. pyogenes; test: Antimicrobial assay, Table 5; assay type: cell-based
[24] = system: E. coli; test: Antimicrobial assay, Table 5; assay type: cell-based
[25] = system: P. aeruginosa; test: Antimicrobial assay, Table 5; assay type: cell-based

| SMILES | MIC [6] | MIC [20] | S. aureus [2] | C. albicans [22] | MRSE [6] | S. pyogenes [23] | MRSA [20] | further results |
| --- | --- | --- | --- | --- | --- | --- | --- | --- |
| N=C(N)NCCCC(N)C(=O)NC(Cc1ccc(-c2ccc3ccccc3c2)cc1)C(=O)NC(CCCNC(=N)N)C(=O)NCCc1ccccc1 (stereo not shown) [Compound 1] | <3 µM | <3 µM |  |  |  |  |  | MIC [1]: 64; MIC [2]: 4 µM (≈ 2.83 µg/mL); MIC [3]: 8; MIC [4]: 16; MIC [5]: 16; MIC [7]: 4; MIC [8]: 32; MIC [9]: 2; MIC [10]: 4; MIC [11]: 32; MIC [12]: 32; MIC [13]: 64; MIC [14]: 4; MIC ([15]; antibiotic-susceptible clinical isolate): 16; MIC ([15]; multi-drug resistant clinical isolate): 16; MIC [16]: 1; MIC [17]: 32; MIC [18]: 8; MIC [19]: 64 |
| N=C(N)NCCC[C@H](NC(=O)C(Cc1ccc(-c2cccc3ccccc23)cc1)NC(=O)[C@@H](N)CCCNC(=N)N)C(=O)NCCc1ccccc1 (stereo partly shown) [Compound 3] |  |  |  |  |  |  |  | half-life at 0.1 mg/ml [21]: 20 h |
| CC(C)(C)c1cc(C(C)(C)C)c2[nH]c(C(C)(C)C)c(C[C@H](NC(=O)[C@@H](N)CCCCN)C(=O)N[C@@H](CCCCN)C(=O)NCCc3ccccc3)c2c1 [Compound 4] | <2 µM | 3 µM (≈ 2.2 µg/mL) |  |  |  |  |  | half-life at 0.1 mg/ml [21]: > 24 h |
| N=C(N)NCCC[C@H](NC(=O)C(Cc1ccc(-c2ccc(-c3ccccc3)cc2)cc1)NC(=O)[C@@H](N)CCCNC(=N)N)C(=O)NCCc1ccccc1 (stereo partly shown) [Compound 5] | 3 µM (≈ 2.2 µg/mL) | 3 µM (≈ 2.2 µg/mL) |  |  |  |  |  | MIC [2]: 5 µM (≈ 3.66 µg/mL); half-life at 0.1 mg/ml [21]: > 24 h |
| N=C(N)NCCC[C@H](NC(=O)[C@H](Cc1c[nH]c2ccccc12)NC(=O)[C@@H](N)CCCNC(=N)N)C(=O)NCCc1ccccc1 [Compound 6, reference compound] (H-Arg-Trp-Arg-NHPhenethyl) | 81 µM (≈ 50.2 µg/mL) | 97 µM (≈ 60.1 µg/mL) |  |  |  |  |  | MIC [2]: 145 µM (≈ 89.9 µg/mL) |
| CCCCNC(=O)[C@H](CCCNC(=N)N)NC(=O)[C@H](Cc1c(C(C)(C)C)[nH]c2c(C(C)(C)C)cc(C(C)(C)C)cc12)NC(=O)[C@@H](N)CCCNC(=N)N [Compound 9] |  |  | 2 mg/L | 10 mg/L | <2 mg/L | 2 mg/L | 3 mg/L |  |
| CCCNC(=O)[C@H](CCCNC(=N)N)NC(=O)[C@H](Cc1c(C(C)(C)C)[nH]c2c(C(C)(C)C)cc(C(C)(C)C)cc12)NC(=O)[C@@H](N)CCCNC(=N)N [Compound 10] |  |  | 2 mg/L | 10 mg/L | <2 mg/L | 2 mg/L | 3 mg/L |  |
| CCCCCCCCCCCCCCCCNC(=O)[C@H](CCCNC(=N)N)NC(=O)[C@H](Cc1c(C(C)(C)C)[nH]c2c(C(C)(C)C)cc(C(C)(C)C)cc12)NC(=O)[C@@H](N)CCCNC(=N)N [Compound 11] |  |  | 5 mg/L | >100 mg/L | 4 mg/L | 6 mg/L | 4 mg/L | E. coli [24]: >100 mg/L; P. aeruginosa [25]: >100 mg/L |
| CC(C)CNC(=O)[C@H](CCCNC(=N)N)NC(=O)[C@H](Cc1c(C(C)(C)C)[nH]c2c(C(C)(C)C)cc(C(C)(C)C)cc12)NC(=O)[C@@H](N)CCCNC(=N)N [Compound 12] |  |  | <2 mg/L | 10 mg/L | 2 mg/L | 2 mg/L | 3 mg/L |  |
| CC(C)(C)c1cc(C(C)(C)C)c2[nH]c(C(C)(C)C)c(C[C@H](NC(=O)[C@@H](N)CCCNC(=N)N)C(=O)N[C@@H](CCCNC(=N)N)C(=O)NC3CCCCC3)c2c1 [Compound 13] |  |  | <2 mg/L | 10 mg/L | 2 mg/L | <2 mg/L | 2 mg/L |  |
| CC(C)(C)c1cc(C(C)(C)C)c2[nH]c(C(C)(C)C)c(C[C@H](NC(=O)[C@@H](N)CCCNC(=N)N)C(=O)N[C@@H](CCCNC(=N)N)C(=O)NC3CCCC3)c2c1 [Compound 14] |  |  | <2 mg/L | 10 mg/L | <2 mg/L | 2 mg/L | >15 mg/L |  |
